Assay results from PubChem BioAssay (NCI).
Where “and” joins values, the source holds several entries; their conditions need not be identical. Identical values can stand only once.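 Growth conditions: 96-well plates. Treatment: test compound, 48 hours, 5 concentrations. Analysis: linear interpolation between bracketing concentrations; unreached endpoints set to highest concentration. The concentration for 50% growth inhibition is given as GI50. TGI marks complete inhibition of growth.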

Key:
Test in all cases: inhibition of tumour cell growth, NCI panel, 48 h
[1] = tested on: T-47D breast
[2] = tested on: MCF7 breast
[3] = tested on: MDA-N
[4] = tested on: DLD-1 colon
[5] = tested on: DMS 273 small cell lung
[6] = tested on: DMS 114 small cell lung
[7] = tested on: LXFL 529 NSCLC
[8] = tested on: SNB-78 CNS
[9] = tested on: RXF-631 renal

Compound | GI50 [1] [µM] | TGI [1] [µM] | GI50 [2] | TGI [2] [µM] | further results
Cn1cc(C2=C(c3cccc(Cl)c3)C(=O)NC2=O)c2ccccc21 | 20 | > 25 | > 25 µM | > 25 | –
COC(=O)C12CC(NC(=O)c3csc([C@@H](C[C@H](C(C)C)N(C)C(=O)[C@@H](NC(=O)[C@H]4CCCCN4C)C(C)C)OC(C)=O)n3)(C1)C2 | 0.00407 | – | 0.000598 µM and 0.00333 µM | > 33.3 | –
COC(=O)CCCCCCCCC(=O)c1c(C)[nH]c(/C=C2\N=C(c3ccc[nH]3)C=C2OC)c1C | > 48.1 | > 89.3 | 64.4 µM | > 100 | –
CCN(CC)CCn1nc2c3c(cccc3c1=O)-c1ccccc1-2 | 2.06 | 27 | 0.715 µM | 3.51 | –
C=C1C(=O)O[C@H]2[C@H]1CC/C(COC(=O)c1ccc(Br)cc1)=C\CC[C@@]1(C)O[C@@H]21 | – | – | 0.645 µM | 2.97 | –
CCCCOc1nc2ccccc2cc1C1CNC(=O)c2ccccc2N1 (stereo unspecified) | 5.55 | > 100 | 2.23 µM | 15.4 | –
NS(=O)(=O)c1ccc(N=Nc2cc3ccccc3c(C(=O)O)c2O)cc1 | – | > 100 | – | > 84.7 | TGI [3]: > 100 µM
Cn1cc(C2=C(c3cn(C)c4cc(Cl)ccc34)C(=O)NC2=O)c2ccccc21 | – | – | 0.0972 µM | > 25 | –
O=C(c1nc2ccccc2[nH]1)C1C(c2cccc([N+](=O)[O-])c2)C2CC3CCCCC3N2[C@@]12C(=O)Nc1cc(Cl)ccc12 (stereo partly specified) | 0.998 | > 100 | 1.95 µM | 7.11 | –
CCc1cc(Nc2nccc(-c3c(-c4ccc(OC)c(C(=O)Nc5c(F)cccc5F)c4)nc4ccccn34)n2)c(OC)cc1N1CCC(N2CCN(S(C)(=O)=O)CC2)CC1 | > 100 | > 100 | – | > 100 | –
Nc1cc2ccncc2c2ccccc12 | 22.3 | > 100 | 19.1 µM | > 100 | –
Fc1ccc(-c2ncn(C3CCNCC3)c2-c2ccnc(Oc3ccc(Oc4ccccc4)cc3)n2)cc1 | 4.45 | 8.55 | 3.23 µM | 6.9 | –
COc1ccc(C2C3=C(COC3=O)N(CCO)c3cc4c(cc32)CCC4)cc1OC (stereo unspecified) | 0.797 | > 50 | 0.176 µM | > 50 | –
Cc1c(-c2ccnc(N)n2)c2c(n1-c1ccccc1)C(=O)c1ccccc1C2=O | 51.4 | > 100 | – | – | –
O=C1c2ccccc2-c2c1c1ccccc1c(=O)n2CCCNCCO | 1.05 | 7.58 | 0.102 µM | 5.03 | –
Cc1ccc(S(=O)(=O)N/N=C/CN2C(=O)c3ccccc3C2=O)cc1 | – | – | – | – | TGI [4]: > 100 µM; TGI [5]: > 100 µM; TGI [6]: > 100 µM; TGI [7]: > 100 µM
CCN(CC)c1ccc(/C=C2/NC(=O)NC2=O)cc1 | 4.09 | > 71.5 | 2.84 µM | > 100 | –

Compound | GI50 [1] [µM] | TGI [1] [µM] | GI50 [2] | TGI [2] [µM] | further results
O=C(N/N=C\c1cc(Br)cc(Br)c1O)N/N=C/c1cc(Br)cc(Br)c1O | 4.02 | 17.7 | 2.89 µM | 12.3 | –
O=C(Nc1ccc(I)cc1F)c1cc(F)ccc1O | 0.313 | 3 | 1.48 µM | > 25.3 | –
O=C(/C=C/c1ccc(OCCCOc2ccc(/C=C/C(=O)c3ccc(Cl)cc3)cc2)cc1)c1ccc(Cl)cc1 | – | – | – | – | TGI [8]: > 100 µM; TGI [4]: > 100 µM; TGI [5]: > 100 µM; TGI [6]: > 100 µM; TGI [7]: > 100 µM
COc1ccc(OC)c(/C=C/C(=O)c2ccc(SC)cc2)c1 | 18.1 | > 100 | 3.98 µM | 12.8 | –
CCc1cc2c(c3[nH]ccc13)[C@@H](C)C[C@H]2C | – | – | – | – | TGI [8]: 34.6 µM; TGI [4]: 36.3 µM; TGI [5]: 32.7 µM; TGI [6]: 43.4 µM; TGI [7]: 32.8 µM
CC(C(=O)C(C)O[Si](c1ccccc1)(c1ccccc1)C(C)(C)C)=P(c1ccccc1)(c1ccccc1)c1ccccc1 (stereo unspecified) | – | – | – | – | TGI [8]: 13.3 µM; TGI [4]: 14.9 µM; TGI [6]: 6.25 µM; TGI [7]: 11.7 µM
BrCC[N+]12CCCN1CCC2 | – | 35.2 | – | – | TGI [3]: 30.2 µM; TGI [8]: 37.5 µM; TGI [4]: 14.1 µM; TGI [5]: 37.1 µM; TGI [7]: 8.59 µM; TGI [9]: 46.4 µM
CN1CCN(Cc2ccc(NC(=O)c3cncc(C#Cc4cncc5[nH]ncc45)c3)cc2C(F)(F)F)CC1 | 1.8 | 9.4 | 1.09 µM | 6.77 | –
CC(C)N(C(=O)C12C3C4C5C3C1(C(=O)N(C(C)C)C(C)C)C5C42)C(C)C (stereo unspecified) | – | – | – | – | TGI [8]: > 100 µM; TGI [4]: > 64.3 µM; TGI [5]: > 56.7 µM; TGI [6]: > 63.2 µM; TGI [7]: > 100 µM
CC(=O)O[C@H]1Cc2c([nH]c3ccccc23)[C@@H](c2ccc(Cl)cc2)N1C(=O)CCNC(C)(C)C | 3.6 | 8.36 | 3.25 µM | 7.74 | –
Clc1cc(-c2csc(Cl)c2)cs1 | – | – | – | > 100 | TGI [3]: > 100 µM
Cc1nc(=O)n2c(c1C(=O)Nc1ccc(Cl)cc1)NCCC2 | – | – | – | – | TGI [8]: > 100 µM; TGI [6]: > 100 µM; TGI [7]: > 100 µM
COC(=O)C1=C(C)NC(C)=C(C(=O)OC)C1c1ccccc1[N+](=O)[O-] | 50.9 | > 100 | > 100 µM | > 100 | –
COc1ccc(CN[C@H]2CCc3cc(OC)c(OC)c(OC)c3-c3ccc(SC)c(=O)cc32)c(OC)c1OC | – | – | – | – | GI50 [8]: < 0.01 µM; TGI [8]: > 100 µM; GI50 [4]: < 0.01 µM; TGI [4]: > 100 µM; GI50 [5]: < 0.01 µM; TGI [5]: 0.0336 µM; TGI [6]: 0.0402 µM; GI50 [7]: < 0.01 µM; TGI [7]: > 100 µM
CCC[CH2][Sn]1([CH2]CCC)[O]N=Cc2ccccc2[O]1 | – | – | – | – | GI50 [8]: 0.287 µM; TGI [8]: 0.811 µM; GI50 [4]: 1.35 µM; TGI [4]: 2.72 µM; GI50 [5]: 1.32 µM; TGI [5]: 2.61 µM; GI50 [6]: 0.309 µM; TGI [6]: 0.94 µM; GI50 [7]: 0.142 µM; TGI [7]: 0.447 µM
CCn1c(-c2nonc2N)nc2c(C#CC(C)(C)O)ncc(OCC3CCNCC3)c21 | > 25 | > 25 | 6.19 µM | > 25 | –
CO[C@H]1/C=C/C=C/C=C/C[C@H](OC(=O)[C@@H](C)NC(=O)C2CCCCC2)[C@H](C)[C@@H](O)/C(C)=C\CCC2=CC(=O)C=C(NC(=O)C1)C2=O | 0.105 | 1.06 | 0.13 µM | 3.54 | –
